This is an account of results in patent US12590118B2, “Salt and crystal form of steroid derivative regulator” (Shanghai Hansoh Biomedical Co., Ltd., priority 2019, dated 2026).

Data set [1] in a line: Competitive experiment of different crystal forms of the free base. The class given is physicochemical. The conditions noted are these: 40° C. The procedure: The stability among crystal forms I, II and III of the free base of Example 40 was investigated, so as to select the stable crystal form.
Multiple portions of about 20 mg of crystal forms I, II and III of the free base of Example 40 were accurately weighed, and mixed in pairs in equal amounts. Methyl tert-butyl ether and n-heptane were added respectively, and the resulting mixture was stirred at 40° C. for 7 days. The mixture was centrifuged at high speed, the supernatant was removed, and the resulting solid precipitate was vacuum dried in an oven at 40° C. and characterized by XRPD.

A short description of data set [2]: Hygroscopicity experiment (DVS). The class given is physicochemical. The method, then: The hygroscopicity of crystal forms I, II and III of the free base of Example 40 under different relative humidity conditions was investigated, so as to provide a basis for screening of the crystal form and salt of the compound, production and storage.
10 to 15 mg of the free base of Example 40 was placed in the sample chamber of DVS. DVS was carried out, and the vapour sorption weight gain percentage of the compound at 80% RH was recorded at the same time.

The next data set concerns CD-1 mice. Description: PTZ-induced epilepsy model in mice. The class given is in vivo. Conditions: 3 mpk p.o., PTZ 120 mg/kg s.c., 30 min observation. The procedure:
The PTZ-induced epilepsy model in CD-1 mice was established, and the antiepileptic effect of the compounds of Example 2, Example 40, Example 41 and Example 52 was evaluated using this model.
50 male CD-1 mice were purchased from Beijing Vital River Laboratory Animal Technology Co. Ltd. The test animals were adapted at the animal room in the third building of Shanghai ChemPartner Co., Ltd for 7 days before the experiment. The average body weight of the animals on the test day was 32.2±0.2 grams. Feeding environment: 5 animals/cage, room temperature 23±2° C., 12/12 hours of light and dark cycle, free access to food and water.
The mice were randomly grouped for the experiment on the test day.
Compounds of Example 2, Example 40, Example 41 and Example 52 (prepared by the applicant). The test compounds were stored in a refrigerator at 4° C.
4.2.3 Test Equipments • 1 ml sterile disposable syringe with needle (purchased from Zhejiang Kangdelai Medical Devices Co., Ltd.) • Pipette: Eppendorf Research Plus (100-1000 μL) • Vortex mixer: Kylin-Bell Vortex 5 • Ultrasonic instrument: JL-360 ultrasonic cleaner • Balance: METTLER TOLEDO XS204 precision balance • Balance: METTLER TOLEDO XS6002S electronic balance • Plexiglass box: 25 cm length*15 cm width*15 cm height with one opaque side wall, custom made by Suzhou Fengshi Laboratory Animal Equipment Co., Ltd • 3-channel timer: Oregon/Model NO. WB-388. 4.2.4 Test Animal Grouping • 1) Vehicle/PTZ: 0.5% CMC-Na+1% Tween-80 (10 ml/kg, p.o.), administered 0.5 hr before the PTZ administration; PTZ ([…], s.c.), administered before the experiment; • 2) 3 mg/kg of the compounds of Examples/PTZ: the compounds of Example 2, Example 40, Example 41 and Example 52 (3 mg/kg, 10 ml/kg, p.o.), administered 0.5 hr before the PTZ administration; PTZ ([…], s.c.), administered before the experiment. 4.3 Experimental Procedures 4.3.1 Solvent Formulation • 1) 0.5% CMC-Na+1% Tween-80 (administration volume: 10 mL/kg):
1 g of sodium carboxymethyl cellulose was precisely weighed and added to a 250 mL solvent bottle, then 150 mL of double-distilled water was added. The mixture was stirred at room temperature for 4 hours with a magnetic stirrer to obtain a uniform and clear solution. 2 mL of Tween-80 was slowly added, and the mixture was stirred at room temperature for 3 hours to obtain a uniform and clear solution. The solution was slowly transferred to a 200 mL volumetric flask, and double distilled water was added to the constant volume of 200 mL. The solution was transferred to a 250 mL solvent bottle, and stirred for 1 hour with a magnetic stirrer to obtain a uniform and clear solution. • 2) 30% hydroxypropyl-p-cyclodextrin:
248 mg of PTZ was precisely weighed and added to a 40 mL brown flask, then 20.667 mL of physiological saline was added. The mixture was mixed by vortex for 2 minutes, and treated by ultrasound at room temperature for 2 minutes to obtain a uniform and clear solution (concentration: 12 mg/mL). • 2) 0.3 mg/mL of the compounds of Example 5 or Example 23 (dose: 3 mg/kg; administration volume: 10 mL/kg): […]
4.4 Adaptation to the Environment
The mice were randomly grouped, marked and weighed; 10 mice per group. The test compound was administered orally at an administration volume of 10 mL/kg 30-60 minutes before the PTZ administration.
PTZ (120 mg/kg) was administrated subcutaneously before the experiment observation, and this time point was recorded as the observation start point; after the administration of PTZ, the animal was immediately placed in the observation box and observed for 30 minutes, and the followings were recorded: a) the incubation period of the first clonic seizure, b) the incubation period of the first generalized tonic seizure, c) the number of clonic seizures, d) the number of generalized tonic seizures, e) the time when the animal died.
All measurement data were expressed as Mean±SEM, and analysed with Prism 6.0 statistical software.

In the case of `C[C@@H]1C[C@H](C(=O)Cn2ccc(C#N)n2)[C@@]2(C)CC[C@H]3[C@@H](CC[C@@H]4C[C@](C)(O)CC[C@@H]43)[C@H]12` [Crystal form I, 1-(2-((3R,5R,8R,9R,10S,13S,14S,15R,17S)-3-Hydroxy-3,13,15-trimethylhexadecahydro-1H-cyclopenta[a]phenanthren-17-yl)-2-oxoethyl)-1H-pyrazole-3-carbonitrile], in data set [1], the “solubility in n-heptane (in words)” value is recorded as “almost insoluble”. Moreover, the “hygroscopicity (in words)” value in data set [2] (DVS) is listed as “no hygroscopicity”. Further, the “Hygroscopicity (25° C./80% RH)” value in data set [2] (DVS vapour sorption weight gain at 80% RH, 25° C.) is 0.07%.
Consider `C[C@@]1(O)CC[C@H]2[C@H](CC[C@@H]3[C@@H]2CC[C@@]2(C)[C@H]3[C@@H]3C[C@@H]3[C@@H]2C(=O)Cn2ccc(C#N)n2)C1` [Example 2, 1-(2-((2R,4aS,4bR,6aS,7S,7aS,8aR,8bR,8cR,10aR)-2-Hydroxy-2,6a-dimethyloctadecahydrocyclopropa[4,5]cyclopenta[1,2-a]phenanthren-7-yl)-2-oxoethyl)-1H-pyrazole-3-carbonitrile], for which, in the data set on CD-1 mice, the “Incubation period of the clonic seizure (sec) Mean ± SEM” value is 902.9 ± 200.8 s, the “Incubation period of the generalized tonic seizure (sec) Mean” value was 1736.0 ± 63.2 s, the “Mortality rate (%)” value turned out to be 10% and the “Number of clonic seizures Mean” value worked out at 1.3 ± 0.3. Further, in the data set on CD-1 mice, the “Number of generalized tonic seizures Mean” value worked out at 0.1 ± 0.1 and the “Time when the animal died (sec) Mean” value amounted to 1739.8 ± 60.2 s.
As for `C[C@@H]1C[C@H](C(=O)Cn2ccc(C#N)n2)[C@@]2(C)CC[C@H]3[C@@H](CC[C@@H]4C[C@](C)(O)CC[C@@H]43)[C@H]12` [Example 40, 1-(2-((3R,5R,8R,9R,10S,13S,14S,15R,17S)-3-Hydroxy-3,13,15-trimethylhexadecahydro-1H-cyclopenta[a]phenanthren-17-yl)-2-oxoethyl)-1H-pyrazole-3-carbonitrile], in the data set with CD-1 mice, the “Incubation period of the clonic seizure (sec) Mean ± SEM” value was 1308.1 ± 170.1 s, the “Incubation period of the generalized tonic seizure (sec) Mean” value worked out at 1800.0 ± 0.0 s, the “Mortality rate (%)” value is 0% and the “Number of clonic seizures Mean” value worked out at 0.5 ± 0.2. Besides, in the data set on CD-1 mice, the “Number of generalized tonic seizures Mean” value was determined as 0.0 ± 0.0 and the “Time when the animal died (sec) Mean” value was found to be 1800.0 ± 0.0 s.
